Source: PubChem BioAssay AID1918999 (Molecular Pharmacology Branch, DTP, NCI, 2023)

Tested on: 556581-035-R-J1-PDC complex spheroid growth
Assay: Anticancer human tumor 556581-035-R-J1-PDC patient-derived ovarian carcinoma cell line growth inhibition [AhR]
Conditions: for IC50: curve of first compound; for viability, T/C: stronger effect = lower value
Method in brief: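 Spheroids combined tumor cells with HUVEC endothelial cells and human MSCs as stroma. AhR antagonists were paired with standard or investigational drugs, each dosed in half-log steps down from near clinical Cmax, or from 10 microM where Cmax was unknown.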

[1] = second compound 0.1 µM, first compound 0.0316 µM
[2] = second compound 0.1 µM, first compound 0.1 µM
[3] = second compound 0.1 µM, first compound 0.316 µM
[4] = second compound 0.1 µM, first compound 1 µM
[5] = second compound 0.1 µM, first compound 3.16 µM
[6] = second compound 0.1 µM, first compound 10 µM
[7] = second compound 0.316 µM, first compound 0.0316 µM
[8] = second compound 0.316 µM, first compound 0.1 µM
[9] = second compound 0.316 µM, first compound 0.316 µM
[10] = second compound 0.316 µM, first compound 1 µM
[11] = second compound 0.316 µM, first compound 3.16 µM
[12] = second compound 0.316 µM, first compound 10 µM
[13] = second compound 1 µM, first compound 0.0316 µM
[14] = second compound 1 µM, first compound 0.1 µM
[15] = second compound 1 µM, first compound 0.316 µM
[16] = second compound 1 µM, first compound 1 µM
[17] = second compound 1 µM, first compound 3.16 µM
[18] = second compound 1 µM, first compound 10 µM
[19] = second compound 3.16 µM, first compound 0.0316 µM
[20] = second compound 3.16 µM, first compound 0.1 µM
[21] = second compound 3.16 µM, first compound 0.316 µM
[22] = second compound 3.16 µM, first compound 1 µM
[23] = second compound 3.16 µM, first compound 3.16 µM
[24] = second compound 3.16 µM, first compound 10 µM
[25] = second compound 10 µM, first compound 0.0316 µM
[26] = second compound 10 µM, first compound 0.1 µM
[27] = second compound 10 µM, first compound 0.316 µM
[28] = second compound 10 µM, first compound 1 µM
[29] = second compound 10 µM, first compound 3.16 µM
[30] = second compound 10 µM, first compound 10 µM
[31] = second compound 0.1 µM, first compound 0.00316 µM
[32] = second compound 0.1 µM, first compound 0.01 µM
[33] = second compound 0.316 µM, first compound 0.00316 µM
[34] = second compound 0.316 µM, first compound 0.01 µM
[35] = second compound 1 µM, first compound 0.00316 µM
[36] = second compound 1 µM, first compound 0.01 µM
[37] = second compound 3.16 µM, first compound 0.00316 µM
[38] = second compound 3.16 µM, first compound 0.01 µM
[39] = second compound 10 µM, first compound 0.00316 µM
[40] = second compound 10 µM, first compound 0.01 µM
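Wherever viability, T/C is given: compound exposure lasted 7 days; 100% = DMSO vehicle control growth.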

SMILES	IC50 (second compound 0.1 µM)	IC50 (second compound 0.316 µM)	IC50 (second compound 1 µM)	IC50 (second compound 3.16 µM)	IC50 (second compound 10 µM)	viability, T/C [1]	viability, T/C [2]	viability, T/C [3]	viability, T/C [4]	viability, T/C [7]	viability, T/C [8]	viability, T/C [9]	viability, T/C [10]	viability, T/C [13]	viability, T/C [14]	viability, T/C [15]	viability, T/C [19]	viability, T/C [20]	viability, T/C [25]	viability, T/C [26]	also measured
CC(C)c1c(-c2ccccc2)nc2c(C#N)c[nH]n2c1=O + CC(CO)NC(=O)c1cc(-c2ccc(Cl)cc2)nn(-c2cnn(C)c2)c1=O	> 10000 nM	> 10000 nM	> 10000 nM	> 10000 nM	> 10000 nM	109%	97.8%	95.2%	102%	106%	105%	95.9%	96.5%	110%	112%	108%	106%	95.5%	108%	117%	viability, T/C [5]: 90.2%; viability, T/C [6]: 97.4%; viability, T/C [11]: 106%; viability, T/C [12]: 97.5%; viability, T/C [16]: 107%; viability, T/C [17]: 113%; viability, T/C [18]: 95.8%; viability, T/C [21]: 116%; viability, T/C [22]: 100%; viability, T/C [23]: 106%; viability, T/C [24]: 99.2%; viability, T/C [27]: 111%; viability, T/C [28]: 97.8%; viability, T/C [29]: 104%; viability, T/C [30]: 97.1%
CC[C@@]1(O)C(=O)OCc2c1cc1n(c2=O)Cc2cc3c(CN(C)C)c(O)ccc3nc2-1 + Cc1ccccc1N=Nc1ccc(NC(=O)c2ccnn2C)c(C)c1	> 100 nM	> 100 nM	> 100 nM	> 100 nM	> 100 nM	70.4%	50.6%	–	–	69.1%	54.9%	–	–	65%	60.3%	–	62.9%	53.1%	64.7%	55.1%	viability, T/C (second compound 0.1 µM, first compound 0.000316 µM): 94.8%; viability, T/C (second compound 0.1 µM, first compound 0.001 µM): 98.5%; viability, T/C [31]: 91.5%; viability, T/C [32]: 82.3%; viability, T/C (second compound 0.316 µM, first compound 0.000316 µM): 108%; viability, T/C (second compound 0.316 µM, first compound 0.001 µM): 104%; viability, T/C [33]: 92.6%; viability, T/C [34]: 73.7%; viability, T/C (second compound 1 µM, first compound 0.000316 µM): 101%; viability, T/C (second compound 1 µM, first compound 0.001 µM): 93.7%; viability, T/C [35]: 84.7%; viability, T/C [36]: 79.1%; viability, T/C (second compound 3.16 µM, first compound 0.000316 µM): 81.3%; viability, T/C (second compound 3.16 µM, first compound 0.001 µM): 83%; viability, T/C [37]: 83.4%; viability, T/C [38]: 72%; viability, T/C (second compound 10 µM, first compound 0.000316 µM): 89.2%; viability, T/C (second compound 10 µM, first compound 0.001 µM): 91.4%; viability, T/C [39]: 91.1%; viability, T/C [40]: 69%
COc1cc(C2c3cc4c(cc3C(OC3OC5COC(C)OC5C(O)C3O)C3COC(=O)C23)OCO4)cc(OC)c1O (stereo not given) + Cc1ccccc1N=Nc1ccc(NC(=O)c2ccnn2C)c(C)c1	> 10000 nM	> 10000 nM	> 10000 nM	> 10000 nM	> 10000 nM	109%	101%	85.4%	71%	110%	106%	85.1%	75.7%	95.9%	106%	92.1%	91.9%	104%	93.2%	98%	viability, T/C [5]: 68.8%; viability, T/C [6]: 52.5%; viability, T/C [11]: 71.5%; viability, T/C [12]: 51.4%; viability, T/C [16]: 69.7%; viability, T/C [17]: 66.5%; viability, T/C [18]: 53.9%; viability, T/C [21]: 94.2%; viability, T/C [22]: 72%; viability, T/C [23]: 62.5%; viability, T/C [24]: 58.7%; viability, T/C [27]: 89.5%; viability, T/C [28]: 75.8%; viability, T/C [29]: 69.7%; viability, T/C [30]: 56.8%
Nc1ncn(C2CC(O)C(CO)O2)c(=O)n1 (stereo not given) + Cc1ccccc1N=Nc1ccc(NC(=O)c2ccnn2C)c(C)c1	> 1000 nM	> 1000 nM	> 1000 nM	> 1000 nM	> 1000 nM	90.4%	84.7%	85.1%	77.4%	85.9%	89.6%	78.7%	74.1%	95.1%	92.3%	89.2%	81%	79.6%	71.2%	72.4%	viability, T/C [31]: 95.9%; viability, T/C [32]: 95.5%; viability, T/C [33]: 108%; viability, T/C [34]: 98.8%; viability, T/C [35]: 98.5%; viability, T/C [36]: 97.7%; viability, T/C [16]: 78.1%; viability, T/C [37]: 86.7%; viability, T/C [38]: 81.6%; viability, T/C [21]: 73%; viability, T/C [22]: 82.8%; viability, T/C [39]: 85.4%; viability, T/C [40]: 77.9%; viability, T/C [27]: 77.6%; viability, T/C [28]: 75.3%

The next lines start with results.

IC50 (second compound 0.1 µM)	IC50 (second compound 0.316 µM)	IC50 (second compound 1 µM)	IC50 (second compound 3.16 µM)	IC50 (second compound 10 µM)	SMILES	viability, T/C [1]	viability, T/C [2]	viability, T/C [3]	viability, T/C [4]	viability, T/C [7]	viability, T/C [8]	viability, T/C [9]	viability, T/C [10]	viability, T/C [13]	viability, T/C [14]	viability, T/C [15]	viability, T/C [19]	viability, T/C [20]	viability, T/C [25]	viability, T/C [26]	also measured
423 nM	416 nM	519 nM	489 nM	493 nM	COc1cccc2c1C(=O)c1c(O)c3c(c(O)c1C2=O)CC(O)(C(=O)CO)CC3OC1CC(N)C(O)C(C)O1 (stereo not given) + Cc1ccccc1N=Nc1ccc(NC(=O)c2ccnn2C)c(C)c1	83.7%	78%	60.2%	20.7%	82.7%	77.9%	59.9%	19.2%	85.7%	93.8%	70.9%	83.2%	79.9%	79.2%	85.7%	viability, T/C [5]: 2.13%; viability, T/C [6]: 2.2%; viability, T/C [11]: 3.1%; viability, T/C [12]: 3.13%; viability, T/C [16]: 21.4%; viability, T/C [17]: 3.42%; viability, T/C [18]: 2.49%; viability, T/C [21]: 68.3%; viability, T/C [22]: 20.1%; viability, T/C [23]: 4.16%; viability, T/C [24]: 1.64%; viability, T/C [27]: 70.2%; viability, T/C [28]: 17.2%; viability, T/C [29]: 2.04%; viability, T/C [30]: 2.28%
< 31.6 nM	< 31.6 nM	< 31.6 nM	< 31.6 nM	< 31.6 nM	Nc1ccn(C2OC(CO)C(O)C2(F)F)c(=O)n1 (stereo not given) + Cc1ccccc1N=Nc1ccc(NC(=O)c2ccnn2C)c(C)c1	35.5%	41.6%	38.4%	34.7%	31.9%	37.4%	38.4%	37.6%	38.3%	37.2%	41.1%	36.1%	36.9%	38%	42.6%	viability, T/C [5]: 35.5%; viability, T/C [6]: 34%; viability, T/C [11]: 35.4%; viability, T/C [12]: 32.4%; viability, T/C [16]: 36.2%; viability, T/C [17]: 33.9%; viability, T/C [18]: 30%; viability, T/C [21]: 37.6%; viability, T/C [22]: 37.7%; viability, T/C [23]: 37.1%; viability, T/C [24]: 29%; viability, T/C [27]: 40.9%; viability, T/C [28]: 39.7%; viability, T/C [29]: 37.7%; viability, T/C [30]: 35.6%
